Laboratory results from publication PMC9905601, “Archaeal DNA-import apparatus is homologous to bacterial conjugation machinery” (Nature Communications, 2023).

Target: T1, P. calidifontis protein Pcal_0765, TedC (Pyrobaculum calidifontis, UniProt A3MU74)
T1 sequence (A3MU74 23-153): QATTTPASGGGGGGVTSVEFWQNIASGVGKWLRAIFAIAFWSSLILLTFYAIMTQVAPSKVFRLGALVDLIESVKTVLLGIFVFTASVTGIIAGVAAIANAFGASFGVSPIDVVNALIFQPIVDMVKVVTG
Experiment: cryo-EM structure of native pilus, […] Å
Format: binding

SMILES: C[C@@H]1CCC[C@H](C)CCC[C@@H](C)CC[C@H](C)CCC[C@@H](C)CCC[C@H](C)CCC[C@H](C)CCOC[C@H](CO)OCC[C@H](C)CCC[C@H](C)CCC[C@H](C)CCC[C@@H](C)CC[C@H](C)CCC[C@@H](C)CCC[C@H](C)CCC[C@H](C)CCOC[C@H](CO)OCC[C@H](C)CCC1 [GDGT-0]
- cryo-EM structure of native pilus, 4.0 Å: we have modeled the simplest form, GDGT-0, into the cryo-EM density
